# Measurements: patent US10829448B2, “Substituted benzoimidazoles as modulators of ROR-γ” (Vitae Pharmaceuticals, LLC, priority 2015, dated 2020)
# Assays:
# [1] = biological target: full-length RORγt in Jurkat cells (Homo sapiens (Human), UniProt P51449); test: RORγt 5×RORE Assay in Jurkat Cells (Assay 2); format: cell-based; settings: RORγt 5×RORE Nanoluc luciferase reporter
# Protocol: [formula] RORγt 5×RORE Assay in Jurkat Cells (Assay 2)
# Compounds described herein were tested for RORγ inverse agonist activity in a cell-based, transcriptional activity assay. […] (Promega, Cat. # N1021) using KpnI and HindIII restriction sites. […] Tested compounds were added to the cells in the same media (final concentration of DMSO was 0.1% (v/v)), and the plates were incubated at 37° C./5% CO2 for 16-18 hrs. Luciferase activity in the conditioned supernatants was determined with NanoGlo® assay reagents (Promega, Cat. # N1130).
# [2] = biological target: recombinant RORγ Ligand Binding Domain (LBD) protein (Homo sapiens (Human), UniProt P51449); test: Radio-Ligand RORγ Binding Assay (Assay 1); settings: competition with 25-hydroxy [26,27-3H]-cholesterol, SPA
# Protocol: Radio-Ligand RORγ Binding Assay (Assay 1)
# Compounds described herein were tested for ability to bind to RORγ in a cell-free competition assay with commercially available radio-ligand (RL), 25-hydroxy [26,27-^3H]-cholesterol (PerkinElmer, Cat. # NET674250UC), for a ligand binding site on a recombinant RORγ Ligand Binding Domain (LBD) protein expressed as a 6×His-Glutathione-S-Transferase (GST) fusion. […] The plate was shaken at 700 rpm for 20 min and incubated for 10 min at rt, after which 40 μL of poly-Lys YSi SPA beads (PerkinElmer, Cat. # RPNQ0010) were added to achieve 50 μg of the beads per well. The plate was incubated on an orbital shaker for 20 min and then for 10 min without agitation at rt. SPA signal for tritium beta radiation was registered on PerkinElmer Microbeta plate reader. […] The percent inhibition vs. concentration data were fit into a four-parameter model, and IC50 values were calculated from the fit as the concentrations corresponding to the inflection points on the dose-response curves.
# Sequence of full-length RORγt in Jurkat cells (P51449 other isoform, or with tags, fused parts or gaps): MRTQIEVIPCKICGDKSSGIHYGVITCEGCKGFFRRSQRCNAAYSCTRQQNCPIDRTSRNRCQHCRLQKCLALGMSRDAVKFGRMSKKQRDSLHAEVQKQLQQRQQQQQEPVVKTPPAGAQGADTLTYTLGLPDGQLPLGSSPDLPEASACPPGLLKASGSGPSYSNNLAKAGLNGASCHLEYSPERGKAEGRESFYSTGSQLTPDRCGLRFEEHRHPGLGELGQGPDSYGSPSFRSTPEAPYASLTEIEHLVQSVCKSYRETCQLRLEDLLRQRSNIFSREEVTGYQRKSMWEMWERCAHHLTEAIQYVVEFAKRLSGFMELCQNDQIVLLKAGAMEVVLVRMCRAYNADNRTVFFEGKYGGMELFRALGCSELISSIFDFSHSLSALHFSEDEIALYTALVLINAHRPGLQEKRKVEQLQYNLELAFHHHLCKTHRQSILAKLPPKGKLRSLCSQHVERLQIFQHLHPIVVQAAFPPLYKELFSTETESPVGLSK
# Sequence of recombinant RORγ Ligand Binding Domain (LBD) protein (P51449 269-508): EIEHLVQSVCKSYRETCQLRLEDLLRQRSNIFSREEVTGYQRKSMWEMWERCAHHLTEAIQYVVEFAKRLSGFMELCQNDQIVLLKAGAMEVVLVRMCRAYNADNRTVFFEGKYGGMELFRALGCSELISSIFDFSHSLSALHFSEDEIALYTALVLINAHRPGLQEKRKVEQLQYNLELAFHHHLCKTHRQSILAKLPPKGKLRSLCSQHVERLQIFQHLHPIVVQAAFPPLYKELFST
Compound,IC50 [1] [nM],Ki [2] [nM]
"CCn1c(C[C@H]2CC[C@@H](C(F)(F)F)CC2)cc2cc(C(=O)N[C@@H](CO)c3ccc(S(=O)(=O)CC)cc3)ccc21 [IN-16.2, 1-ethyl-N-((R)-1-(4-(ethylsulfonyl)phenyl)-2-hydroxyethyl)-2-(((1s,4S)-4-(trifluoromethyl)cyclohexyl)methyl)-1H-indole-5-carboxamide]",> 1000,< 100
"CCn1c(C[C@H]2CC[C@@H](C(F)(F)F)CC2)cc2cc(C(=O)NCc3ccc(S(=O)(=O)CC)cn3)ccc21 [IN-15.2, 1-ethyl-N-((5-(ethylsulfonyl)pyridin-2-yl)methyl)-2-(((1s,4s)-4-(trifluoromethyl)cyclohexyl)methyl)-1H-indole-5-carboxamide]",> 1000,< 100
"CCn1c(C[C@H]2CC[C@@H](C(F)(F)F)CC2)cc2cc(C(=O)NCc3ccc(S(=O)(=O)CC)cc3)ccc21 [IN-17.2, 1-ethyl-N-(4-(ethylsulfonyl)benzyl)-2-(((1s,4s)-4-(trifluoromethyl)cyclohexyl)methyl)-1H-indole-5-carboxamide]",> 1000,< 100
"CCS(=O)(=O)c1ccc([C@H](COC(N)=O)NC(=O)c2ccc3c(c2)nc(C[C@H]2CC[C@H](C(F)(F)F)CC2)n3C2CC2)cc1 [BE-66, (R)-2-(1-cyclopropyl-2-(((1r,4R)-4-(trifluoromethyl)cyclohexyl)methyl)-1H-benzo[d]imidazole-5-carboxamido)-2-(4-(ethylsulfonyl)phenyl)ethyl carbamate]",< 100,< 100

# Next, values leading:
IC50 [1] [nM],Ki [2] [nM],Compound
< 100,< 100,"CCS(=O)(=O)c1ccc([C@H](CO)NC(=O)c2ccc3c(c2)nc(C(=O)c2ccc(C(F)(F)F)cc2)n3C2CC2)cc1 [BE-61, (R)-1-cyclopropyl-N-(1-(4-(ethylsulfonyl)phenyl)-2-hydroxyethyl)-2-(4-(trifluoromethyl)benzoyl)-1H-benzo[d]imidazole-5-carboxamide]"
< 100,< 100,"CCS(=O)(=O)c1ccc([C@@H](COC(N)=O)NC(=O)c2ccc3c(c2)nc(C[C@H]2CC[C@H](C(F)(F)F)CC2)n3C2CC2)cc1 [BE-67, (S)-2-(1-cyclopropyl-2-(((1r,4S)-4-(trifluoromethyl)cyclohexyl)methyl)-1H-benzo[d]imidazole-5-carboxamido)-2-(4-(ethylsulfonyl)phenyl)ethyl carbamate]"
